For 20 molecules, EC50 results are on record in patent US8563714B2, “Bridged spiro [2.4] heptane derivatives as ALX receptor and/or FPRL2 agonists” (Actelion Pharmaceuticals Ltd., priority 2009, dated 2013).

One assay concerns the target T1, human ALX receptor (Homo sapiens, UniProt P25090).
T1 construct: expressed in transfected cells; host or cells: HEK293 (HEK293-hALXR-Gα16)
T1 sequence (P25090 1-351): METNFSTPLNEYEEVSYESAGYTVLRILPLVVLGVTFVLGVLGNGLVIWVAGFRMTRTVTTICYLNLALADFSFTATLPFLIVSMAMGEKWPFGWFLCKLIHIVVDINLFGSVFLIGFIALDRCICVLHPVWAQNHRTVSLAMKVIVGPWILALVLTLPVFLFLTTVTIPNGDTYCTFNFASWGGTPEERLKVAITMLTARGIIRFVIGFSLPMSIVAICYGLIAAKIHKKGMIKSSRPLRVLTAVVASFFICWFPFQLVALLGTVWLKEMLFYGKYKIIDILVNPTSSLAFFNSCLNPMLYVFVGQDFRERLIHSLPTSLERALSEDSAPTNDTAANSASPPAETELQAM
Briefly: Intracellular calcium measurements (FLIPR), agonistic activity in HEK293-hALXR-Gα16 cells. It counts as cell-based. Conditions: Fluo-4 calcium FLIPR, normalized to WKYMVm 10 nM. In short, it runs like this: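 Agonist-induced calcium flux was recorded by FLIPR (488/540 nm) in HEK293-hALXR-Gα16 cells pre-loaded with Fluo-4 AM (1 μM, 60 min, 37°C). Peak signal above baseline, after subtracting buffer addition, was expressed relative to WKYMVm at 10 nM final.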

For the next assay, the target named is T2, human FPRL2 (Homo sapiens, UniProt P25089).
T2 construct: expressed in transfected cells; host or cells: HEK293 (HEK293-hFPRL2-Gα16)
T2 sequence (P25089 1-353): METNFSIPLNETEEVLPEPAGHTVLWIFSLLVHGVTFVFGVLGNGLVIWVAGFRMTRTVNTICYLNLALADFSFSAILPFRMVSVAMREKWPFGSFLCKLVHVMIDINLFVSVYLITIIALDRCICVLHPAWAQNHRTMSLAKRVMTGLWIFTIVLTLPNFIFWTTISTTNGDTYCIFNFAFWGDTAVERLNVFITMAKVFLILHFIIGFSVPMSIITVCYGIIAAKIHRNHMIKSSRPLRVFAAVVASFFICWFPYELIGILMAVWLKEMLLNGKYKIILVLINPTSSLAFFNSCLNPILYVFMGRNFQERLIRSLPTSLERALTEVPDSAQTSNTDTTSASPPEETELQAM
As to the kind of experiment: Intracellular calcium measurements (FLIPR), agonistic activity in HEK293-hFPRL2-Gα16 cells. It counts as cell-based. Conditions: Fluo-4 calcium FLIPR, normalized to GLY14-Humanin 100 nM. In short, it runs like this: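 Peak values after baseline subtraction are expressed relative to 100 nM Gly14-Humanin; compounds diluted in assay buffer from 10 mM DMSO stocks.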

Each structure is given as a SMILES string.

As for `COc1ccc(NC(=O)[C@H]2[C@H](C(=O)NCCCCN3CCCC3)[C@H]3C=C[C@@H]2C32CC2)cc1` [Example 285, (5R)—N^5-(4-Methoxyphenyl)-(6R)—N^6-(4-pyrrolidino-butyl)-(4S,7R)-[4,7-ethenylene-spiro[2.4]heptane]-5,6-dicarboxamide], the EC50 on human ALX receptor came out at 9 nM; at human FPRL2 it was 224 nM.

On to `O=C(NCCCn1ccnc1)[C@H]1[C@H](C(=O)Nc2ccc(Br)cc2)[C@@H]2C=C[C@H]1C21CC1` (racemic) [Example 40, (5R*)—N^5-(4-Bromophenyl)-(6R*)—N^6-(3-1H-imidazol-1-yl-propyl)-(4S*,7R*)-[4,7-ethenylene-spiro[2.4]heptane]-5,6-dicarboxamide], for which the EC50 at human ALX receptor is 9 nM; on human FPRL2 it was 848 nM.

Consider `NC(=O)CCCNC(=O)[C@H]1[C@H](C(=O)Nc2ccc(Br)cc2)[C@@H]2C=C[C@H]1C21CC1` (racemic) [Example 205, (5R*)—N^5-(4-Bromophenyl)-(6R*)—N^6-(4-amino-4-oxobutyl)-(4S*,7R*)-[4,7-ethenylene-spiro[2.4]heptane]-5,6-dicarboxamide], for which the EC50 at human ALX receptor turned out to be 7.3 nM; at human FPRL2, 4780 nM.

With `O=C(NC[C@H]1[C@H](C(=O)Nc2ccc(Br)cc2)[C@@H]2C=C[C@H]1C21CC1)c1cccc(F)c1Cl` (racemic) [Example 176, (5R*)—N^5-(4-Bromo-phenyl)-(6R*)-6-{[(2-chloro-3-fluoro-phenyl-carbonyl)-amino]-methyl}-(4S*,7R*)-[4,7-ethenylene-spiro[2.4]heptane]-5-carboxamide], the half-maximal effective concentration (EC50) on human ALX receptor was 158 nM; at human FPRL2, 2230 nM.

Take `CC(C)CC(CO)NC(=O)C1C(C(=O)Nc2ccc(Br)cc2)C2C=CC1C21CC1` (mixture of isomers) [Example 59, (5R*)—N^5-(4-Bromophenyl)-(6R*)—N^6-[(2S)-1-hydroxy-4-methyl-pent-2-yl]-(4S*,7R*)-[4,7-ethenylene-spiro[2.4]heptane]-5,6-dicarboxamide]: the EC50 at human ALX receptor amounted to 21 nM; on human FPRL2, 8280 nM.

`COc1ccc(C)cc1CNC(=O)[C@H]1[C@H](C(=O)NCCCCN2CCCC2)[C@H]2C=C[C@@H]1C21CC1` (racemic) [Example 370, (5R*)—N^5-(2-Methoxy-5-methylphenyl-methyl)-(6R*)—N^6-(4-pyrrolidino-butyl)-(4S*,7R*)-[4,7-ethenylene-spiro[2.4]heptane]-5,6-dicarboxamide]: the EC50 at human ALX receptor is over 25000 nM; at human FPRL2, 180 nM.

`O=C(NCCCCN1CCCC1)[C@H]1[C@H](C(=O)Nc2ccc(OC(F)(F)F)cc2)[C@@H]2C=C[C@H]1C21CC1` (racemic) [Example 133, (5R*)—N^5-(4-Trifluoromethoxyphenyl)-(6R*)—N^6-(4-pyrrolidin-1-yl-butyl)-(4S*,7R*)-[4,7-ethenylene-spiro[2.4]heptane]-5,6-dicarboxamide]: the EC50 at human ALX receptor was determined as 263 nM; on human FPRL2, 122 nM.

As to `O=C(NCC1CCCNC1)[C@H]1[C@H](C(=O)Nc2ncc(Br)s2)[C@@H]2CC[C@H]1C21CC1` (stereo partly drawn) [Example 418, (5R)—N^5-(5-Bromothiazol-2-yl)-(6R)—N^6-[(piperidin-3-yl)-methyl]-(4S,7R)-[4,7-ethylene-spiro[2.4]heptane]-5,6-dicarboxamide], the values for the EC50 at human ALX receptor and on human FPRL2 were 0.45 nM and 339 nM, respectively.

Take `O=C(NCCCCN1CCCC1)[C@H]1[C@H](C(=O)Nc2cnc(Br)c(F)c2)[C@@H]2C=C[C@H]1C21CC1` [Example 338, (5R)—N^5-(2-Bromo-3-fluoro-pyridin-5-yl)-(6R)—N^6-(4-pyrrolidino-butyl)-(4S,7R)-[4,7-ethenylene-spiro[2.4]heptane]-5,6-dicarboxamide]: the EC50 at human ALX receptor came out at 168 nM; on human FPRL2, 139 nM.

As for `Cc1cnc(NC(=O)[C@H]2[C@H](C(=O)NCCCCN3CCCC3)[C@H]3C=C[C@@H]2C32CC2)s1` (racemic) [Example 193, (5R*)—N^5-(5-Methyl-thiazol-2-yl)-(6R*)—N^6-(4-pyrrolidin-1-yl-butyl)-(4S*,7R*)-[4,7-ethenylene-spiro[2.4]heptane]-5,6-dicarboxamide], the EC50 was determined as 463 nM on human ALX receptor and 355 nM at human FPRL2.

`O=C(CC1CC1)NC[C@H]1[C@H](C(=O)Nc2ccc(Br)cc2)[C@@H]2C=C[C@H]1C21CC1` (racemic) [Example 184, (5R*)—N^5-(4-Bromo-phenyl)-(6R*)-6-[(2-cyclopropyl-acetylamino)-methyl]-(4S*,7R*)-[4,7-ethenylene-spiro[2.4]heptane]-5-carboxamide]: the 50% effective concentration (EC50) on human ALX receptor is 315 nM; at human FPRL2, over 14500 nM.

For `O=C(NCCCO)[C@H]1[C@H](C(=O)Nc2ccc(Br)cc2)[C@@H]2C=C[C@H]1C21CC1` [Example 12, (5R)—N^5-(4-Bromophenyl)-(6R)—N^6-(3-hydroxy-propyl)-(4S,7R)-[4,7-ethenylene-spiro[2.4]heptane]-5,6-dicarboxamide], the EC50 is 1 nM on human ALX receptor and 1300 nM on human FPRL2.

In the case of `O=C(NCC1CCCO1)C1C(C(=O)Nc2ccc(Br)cc2)C2CCC1C21CC1` (mixture of isomers) [Example 104, (5R*)—N^5-(4-Bromophenyl)-(6R*)—N^6-(tetrahydrofuran-2-yl-methyl)-(4S*,7R*)-[4,7-ethylene-spiro[2.4]heptane]-5,6-dicarboxamide], the values for the EC50 at human ALX receptor and at human FPRL2 were 1.5 nM and 5250 nM, respectively.

`O=C(N[C@H]1CC[C@H](O)CC1)[C@H]1[C@H](C(=O)Nc2ncc(Br)s2)[C@@H]2CC[C@H]1C21CC1` [Example 408, (5R)—N^5-(5-Bromothiazol-2-yl)-(6R)—N^6-(4-hydroxy-cyclohexyl)-(4S,7R)-[4,7-ethylene-spiro[2.4]heptane]-5,6-dicarboxamide]: the results for the EC50 on human ALX receptor and at human FPRL2 were 69 nM and 16300 nM, respectively.

Regarding `CNCCNC(=O)[C@H]1[C@H](C(=O)NCc2ccc(Br)cc2)[C@@H]2C=C[C@H]1C21CC1` (racemic) [Example 305, (5R*)—N^5-(4-Bromophenyl-methyl)-(6R*)—N^6-(2-methylamino-ethyl)-(4S*,7R*)-[4,7-ethenylene-spiro[2.4]heptane]-5,6-dicarboxamide], the EC50 at human ALX receptor was 350 nM; on human FPRL2, 2050 nM.

Turning to `CCN1CCN(CCCCNC(=O)[C@H]2[C@H](C(=O)Nc3ccc(Br)cc3)[C@@H]3C=C[C@H]2C32CC2)CC1` [Example 208, (5R)—N^5-(4-Bromophenyl)-(6R)—N^6-(4-(4-ethyl-piperazin-1-yl)-butyl)-(4S,7R)-[4,7-ethenylene-spiro[2.4]heptane]-5,6-dicarboxamide], the EC50 at human ALX receptor was found to be 2.3 nM; on human FPRL2, 15 nM.

On to `CC(=O)c1csc(CNC(=O)[C@H]2[C@H](C(=O)NCCN3CCNC3=O)[C@H]3C=C[C@@H]2C32CC2)n1` (racemic) [Example 269, (5R*)—N^5-(4-Acetyl-thiazol-2-yl-methyl)-(6R*)—N^6-((2-imidazolidin-2-on)-1-yl-ethyl)-(4S*,7R*)-[4,7-ethenylene-spiro[2.4]heptane]-5,6-dicarboxamide], for which the EC50 at human ALX receptor came out at 82 nM; on human FPRL2 it was 3550 nM.

For the molecule `Cc1cc2ccccc2n1CCCNC(=O)[C@H]1[C@H](C(=O)NCCCCN2CCCC2)[C@H]2C=C[C@@H]1C21CC1` (racemic) [Example 155, (5R*)—N^5-(3-(2-Methyl-1H-indol-1-yl)-propyl)-(6R*)—N^6-(4-pyrrolidin-1-yl-butyl)-(4S*,7R*)-[4,7-ethenylene-spiro[2.4]heptane]-5,6-dicarboxamide], the results for the EC50 on human ALX receptor and on human FPRL2 were over 25000 nM and 91 nM, respectively.

On to `CNCCCNC(=O)[C@H]1[C@H](C(=O)Nc2ncc(Br)s2)[C@@H]2CC[C@H]1C21CC1` [Example 414, (5R)—N^5-(5-Bromothiazol-2-yl)-(6R)—N^6-(3-(N-methylamino)-propyl)-(4S,7R)-[4,7-ethylene-spiro[2.4]heptane]-5,6-dicarboxamide], for which the EC50 at human ALX receptor is 14 nM; on human FPRL2, 773 nM.

Turning to `O=C(NCCCc1nc2ccccc2[nH]1)[C@H]1[C@H](C(=O)NCc2ccc(Br)cc2)[C@@H]2C=C[C@H]1C21CC1` (racemic) [Example 249, (5R*)—N^5-(4-Bromo-phenyl-methyl)-(6R*)—N^6-(3-(1H-benzoimidazol-2-yl)-propyl)-(4S*,7R*)-[4,7-ethenylene-spiro[2.4]heptane]-5,6-dicarboxamide], the EC50 was determined as 216 nM on human ALX receptor and 47 nM at human FPRL2.
